What was measured:
[1] = Stability of the isolated modified amino acid ester by 1H NMR; format: physicochemical; conditions: isolated solid or fluid
Gram Negative = experiment: Surface Antimicrobial Kill Testing Method, activity normalized to triclosan internal standard; format: cell-based; conditions: for Negative Referenced Microbial Activity: Table 16; for Negative Referenced Microbial Activity / Gram Negative Referenced Microbial Activity / Referenced Microbial Activity: 0.5 wt % compound; for Negative Referenced Microbial Activity / Referenced Microbial Activity: 0.1M Acetic acid buffer pH 4.5; for antimicrobial benefit (in words): Table 16 nonionic formulation: DEGBE, EcoSurf EH9; for Gram Negative Referenced Microbial Activity: 5 wt % DPGME; for Referenced Microbial Activity: Table 15; for antimicrobial efficacy (in words): Table 17
Description: Inoculum is prepared by streaking microorganism onto a Tryptic Soy Agar (TSA) plate and incubating for 24 h at 33° C. Plated bacteria is resuspended in saline until the transmittance percentage falls within the accepted range for ˜10^8 cfu/mL. For K. pneumonia (Kp) and P. aeruginosa (Pa), this is 31.00-33.00% T. For S. aureus (Sa) this is 23.00-25.00% T. A 10× concentration is made by spinning down the prepared inoculum, removing the supernatant saline from the bacterial pellet, then resuspending the pellet in 1/10 of the original volume of saline. The final inoculum is prepared with 5% of “soil” in the form of Fetal Bovine Serum (FBS).
A 18×18 mm sterile glass coverslip is placed into an appropriate container (e.g. petri dish). 20 μL of prepared inoculum is added to the glass coverslip. Inoculum is then air-dried for 30 minutes in a 36° C. incubator. After drying, 40 μL of test sample is added on top of the dried inoculum. This is incubated at room temperature for the desired contact time. 5 mL of neutralizing media (Modified Letheen Broth+Tween+Lecithin (MLBTL)) is added to the coverslip and shaken on an orbital shaker for 5 minutes to ensure proper neutralization and extraction. Viability is then assessed of the neutralized and extracted sample by traditional/alternative microbiological techniques.
The normalized antimicrobial activity reported in the performance examples below was generated from detection time data obtained as described in the Surface Antimicrobial Kill Test Method. To account for day-to-day variability an internal standard was tested with each series. The internal standard was a composition of 0.25 wt % Triclosan, Sigma Aldrich (St. Louis, Mo., USA; CAS #3380-34-5, 97.0-103.0% (active substance, GC)), 50 wt % DMSO, and 49.75 wt % H2O, with a final solution pH of 7.7. Normalized activity is reported following the equation 1 below.
Normalized Activity=(αΔDT−βΔDT)/(γΔDT−βΔDT) equation 1.
where, αΔDT is the average detection time of the antimicrobial compound, and γΔDT is the average detection time of the reference triclosan internal standard, and βΔDT is the average detection time of the background unperturbed bacteria.
Modified amino acids of the present disclosure were tested as aqueous solutions in the Surface Antimicrobial Kill Testing Method above. To prepare test solutions modified amino acids were first dissolved in the appropriate solvent. Second the selected surfactant is added to the mixture. After vortex (1 min, Vortex-2 Genie, vortex speed 8) mixing, the samples were then diluted with […] of reverse osmosis water (RO water, Millipore Direct-Q™, pH 6). The aqueous solution was then vortexed (1 min, Vortex-2 Genie, vortex speed 8), to which the second ½ portion of water is added. The pH of the solution was then adjusted to the target pH using either 1N HCl, Glacial Acetic Acid, or 1N NaOH. The final solution was then vortexed (1 min, Vortex-2 Genie, vortex speed 8). An example batch sheet is provided below in Table 1.
In Performance Examples 1-4 below, formulations comprising solvent, surfactant, and antimicrobial agents according to the present disclosure (e.g., based on modified amino acid esters), are evaluated via microbial surface kill tests according to the Surface Antimicrobial Kill Testing Method provided above. After treatment, microbial growth is referenced and reported to a triclosan sample and unaltered microbes according to the Normalization of Antimicrobial Activity provided above.

[2] = DEGBE (5 wt %), EcoSurf EH9 1 wt %

CCCCCCCCCCCCOC(=O)[C@@H](N)Cc1ccccc1 [Synthetic Example 10]
stability by 1H NMR [1]: stable for several months | Negative Referenced Microbial Activity (Gram Negative; [2]): 0.1 | antimicrobial benefit (in words) (Gram Negative): little surface activity

CCCCCCCCOC(=O)[C@@H](N)C(C)C [Synthetic Example 4]
stability by 1H NMR [1]: stable for several months | Gram Negative Referenced Microbial Activity (Gram Negative; CTAC 1 wt %, pH 4.5): 3.5 | Gram Negative Referenced Microbial Activity (Gram Negative; Ecosurf EH6 1 wt %, pH 4.5): 3.5 | Gram Negative Referenced Microbial Activity (Gram Negative; Ecosurf EH6 1 wt %, pH 8.5): 0.7 | Gram Negative Referenced Microbial Activity (Gram Negative; Miranol Ultra 32 1 wt %, pH 4.5): 3.5 | Gram Negative Referenced Microbial Activity (Gram Negative; Plantaren 2000 1 wt %, pH 4.5): 3.5 | Gram Negative Referenced Microbial Activity (Gram Negative; SLS (29%) 1 wt %, pH 4.5): 0.4 | Gram Negative Referenced Microbial Activity (Gram Negative; SLS (29%) 1 wt %, pH 8.5): 0.1 | Gram Negative Referenced Microbial Activity (Gram Negative; Surfonic L 24-9 1 wt %, pH 2): 2.5 | Gram Negative Referenced Microbial Activity (Gram Negative; Surfonic L 24-9 1 wt %, pH 4.5): 3.5 | Gram Negative Referenced Microbial Activity (Gram Negative; Surfonic L24-9 1 wt %, pH 7): 3.5 | Gram Negative Referenced Microbial Activity (Gram Negative; Surfonic L24-9 1 wt %, pH 8.5): 0.2 | Gram Negative Referenced Microbial Activity (Gram Negative; Tween 80 1 wt %, pH 4.5): 3.5 | Gram Negative Referenced Microbial Activity (Gram Negative; no surfactant, pH 4.5, solution heated to 50 C. prior to testing): 1.6 | Referenced Microbial Activity (Gram Negative; DEGBE (5 wt %), EcoSurf EH6 1 wt %): 3.7 | Referenced Microbial Activity (Gram Negative; [2]): 1.6 | antimicrobial activity (in words) (Gram Negative; Table 15 experiment, modified valine amino acids): highest activity | antimicrobial efficacy (in words) (Gram Negative; from pH 2 to about pH 7): improved antimicrobial efficacy | antimicrobial efficacy (in words) (Gram Negative; pH range greater than 7): did not provide a benefit

N[C@@H](Cc1ccccc1)C(=O)OCc1ccccc1 [Synthetic Example 8]
stability by 1H NMR [1]: stable for several months | Negative Referenced Microbial Activity (Gram Negative; [2]): 4.6

CCOC(=O)C(N)C(C)C (stereo not shown) [Comparative Example C1, reference compound]
Referenced Microbial Activity (Gram Negative; [2]): 0.5

CCCCCCCCCCCCCCCCCCOC(=O)[C@@H](N)C(C)C [Synthetic Example 7]
stability by 1H NMR [1]: stable for several months | Referenced Microbial Activity (Gram Negative; [2]): 0.9 | Referenced Microbial Activity (Gram Negative; DMSO (50 wt %), EcoSurf EH6 1 wt %): 0.6

CCCCCCOC(=O)[C@@H](N)C(C)C [Synthetic Example 3]
stability by 1H NMR [1]: stable for several months | Referenced Microbial Activity (Gram Negative; [2]): 2.8

CCOC(=O)[C@@H](N)Cc1ccccc1 [Comparative Example C2, phenylalanine ethyl ester, reference compound]
Negative Referenced Microbial Activity (Gram Negative; [2]): 0.4 | antimicrobial benefit (in words) (Gram Negative): little antimicrobial benefit

CCCCCCCCCCCCCCCCOC(=O)[C@@H](N)C(C)C [Synthetic Example 6]
stability by 1H NMR [1]: stable for several months | Referenced Microbial Activity (Gram Negative; [2]): 0.6
